Test results taken from ChEMBL document CHEMBL1201862, “PubChem BioAssay data set” (2004).
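Results reflect a 48-hour exposure of cells in 96-well plates to compound at five concentrations. GI50: concentration for 50% inhibition of growth.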 Active and inactive are the calls of the source. No stated cut-off is given here; in the data, active = GI50 up to about 1.1 µM and inactive = higher.

Experiments:
Test in all cases: inhibition of tumour cell growth, NCI panel, 48 h
[1] = tested on: A498
[2] = tested on: COLO 205
[3] = tested on: DU-145
[4] = tested on: EKVX
[5] = tested on: HOP-62
[6] = tested on: K562
[7] = tested on: MDA-MB-435
[8] = tested on: MDA-N
[9] = tested on: MOLT-4
[10] = tested on: OVCAR-4
[11] = tested on: PC-3
[12] = tested on: RPMI-8226
[13] = tested on: SF-268
[14] = tested on: SF-295
[15] = tested on: SF-539
[16] = tested on: SK-MEL-28
[17] = tested on: SK-MEL-2
[18] = tested on: SNB-75
[19] = tested on: UACC-257

Row | SMILES | GI50 [1] | GI50 [2] | GI50 [3] | GI50 [4] | GI50 [5] | GI50 [6] | GI50 [7] | GI50 [8] | GI50 [9] | GI50 [10] | GI50 [11] | GI50 [12] | GI50 [13] | GI50 [14] | GI50 [15] | GI50 [16] | GI50 [17] | GI50 [18] | GI50 [19]
1 | CC1=NN(C(=O)CC(=O)Nc2ccc(C)cc2)C(=O)C1/N=N\c1ccc(S(=O)(=O)c2ccc(/N=N/C3C(=O)N(C(=O)CC(=O)Nc4ccc(C)cc4)N=C3C)cc2)cc1 (stereo not drawn) | > 100 µM (inactive) | > 100 µM (inactive) | > 100 µM (inactive) | > 100 µM (inactive) | > 100 µM (inactive) | 4.98 µM (inactive) | 84.3 µM (inactive) | 69.7 µM (inactive) | 42.5 µM (inactive) | > 100 µM (inactive) | 72.4 µM (inactive) | 82.4 µM (inactive) | > 100 µM (inactive) | > 100 µM (inactive) | > 100 µM (inactive) | > 100 µM (inactive) | 58.6 µM (inactive) | > 100 µM (inactive) | > 100 µM (inactive)
2 | O=[N+]([O-])C(=C/c1cccs1)/C(=C\c1cccs1)[N+](=O)[O-] | 1.64 µM (inactive) | 0.429 µM (active) | 1.43 µM (inactive) | 2.29 µM (inactive) | 2.47 µM (inactive) | 0.272 µM (active) | 0.441 µM (active) | 0.423 µM (active) | 0.157 µM (active) | 1.87 µM (inactive) | 0.575 µM (active) | 0.267 µM (active) | 0.861 µM (active) | 1.96 µM (inactive) | 0.212 µM (active) | 0.395 µM (active) | 1.75 µM (inactive) | 9.46 µM (inactive) | 1.29 µM (inactive)
3 | N#Cc1c(-c2ccccc2)cc(Nc2ccc(Cl)cc2)n2c1nc1ccccc12 | 3.71 µM (inactive) | 1.74 µM (inactive) | 3.45 µM (inactive) | 1.52 µM (inactive) | 3.67 µM (inactive) | 1.49 µM (inactive) | 2.99 µM (inactive) | 2.42 µM (inactive) | 2.34 µM (inactive) | 3.23 µM (inactive) | 2.56 µM (inactive) | 1.22 µM (inactive) | 3.71 µM (inactive) | 3.4 µM (inactive) | 4.39 µM (inactive) | > 55 µM (inactive) | 2.99 µM (inactive) | 5.47 µM (inactive) | 1.91 µM (inactive)
4 | CSC(=O)/C=C1\SS/C(=C\C(=O)SC)S1 | 7.89 µM (inactive) | 6.31 µM (inactive) | 10.5 µM (inactive) | 2.4 µM (inactive) | 7.35 µM (inactive) | 2.79 µM (inactive) | 2.29 µM (inactive) | 2.51 µM (inactive) | 1.77 µM (inactive) | 3.75 µM (inactive) | 3.09 µM (inactive) | 1.55 µM (inactive) | 2.49 µM (inactive) | 5.36 µM (inactive) | 2.72 µM (inactive) | 2.42 µM (inactive) | 2.15 µM (inactive) | 2.58 µM (inactive) | 3.06 µM (inactive)
5 | CCCCN1C(=O)N(c2ccc(OCC)cc2)C2N(CCCC)C1C(C)(C)C2(C)C (stereo not drawn) | 35.2 µM (inactive) | 22.5 µM (inactive) | 30.1 µM (inactive) | 19.7 µM (inactive) | 35.9 µM (inactive) |  | 20.2 µM (inactive) | 22 µM (inactive) |  | 37.8 µM (inactive) | 23.2 µM (inactive) | 14.9 µM (inactive) | 21.9 µM (inactive) | 47.4 µM (inactive) | 16.7 µM (inactive) | 32.1 µM (inactive) | 31.6 µM (inactive) | 37.3 µM (inactive) | 27.5 µM (inactive)
6 | CC(=O)c1c(-c2ccccc2)c(-c2ccc(OCCN(C)C)cc2)n2ccccc12 | 19.2 µM (inactive) | 14 µM (inactive) | 16.8 µM (inactive) | 17.5 µM (inactive) |  | 13.4 µM (inactive) | 17.7 µM (inactive) | 15.8 µM (inactive) | 15 µM (inactive) | 24.8 µM (inactive) | 16.2 µM (inactive) | 20.8 µM (inactive) | 16.8 µM (inactive) | 17.2 µM (inactive) | 13.9 µM (inactive) | 15.2 µM (inactive) | 19.1 µM (inactive) | 12.4 µM (inactive) | 15.5 µM (inactive)
7 | CC(=O)OCC1OC(N2C(c3ccccc3)=CC(c3ccccc3)C(C#N)=C2S)C(OC(C)=O)C(OC(C)=O)C1OC(C)=O (stereo not drawn) | 20.2 µM (inactive) | 1.89 µM (inactive) | 26.4 µM (inactive) |  | 4.06 µM (inactive) | 3.76 µM (inactive) | 4.92 µM (inactive) | 2.02 µM (inactive) | 48.6 µM (inactive) | 1.55 µM (inactive) | 2.77 µM (inactive) | 13.3 µM (inactive) | 5.33 µM (inactive) | 2.04 µM (inactive) | 2.56 µM (inactive) | 8.95 µM (inactive) | 2.27 µM (inactive) | 10.4 µM (inactive) | 3.63 µM (inactive)
8 | CCc1ccc2nccc(NCCCN(C)C)c2c1[N+](=O)[O-] | > 100 µM (inactive) | 30.7 µM (inactive) | > 100 µM (inactive) | > 100 µM (inactive) | > 100 µM (inactive) | 42.8 µM (inactive) | 62.2 µM (inactive) | 64.7 µM (inactive) | > 100 µM (inactive) | 90.2 µM (inactive) | 70 µM (inactive) | > 100 µM (inactive) | > 100 µM (inactive) | 75.7 µM (inactive) | > 10 µM (inactive) | > 100 µM (inactive) | > 100 µM (inactive) | 50 µM (inactive) | 32.3 µM (inactive)
9 | CN(C)CCNc1nc2ccccc2c2c1C(=O)c1ccccc1-2 | 0.163 µM (active) | 0.303 µM (active) | 0.149 µM (active) | 0.361 µM (active) | 0.233 µM (active) | 0.163 µM (active) | 0.288 µM (active) | 0.318 µM (active) | 0.01 µM (active) | 0.338 µM (active) | 0.27 µM (active) | 0.123 µM (active) | 0.279 µM (active) | 0.225 µM (active) | 0.382 µM (active) | 0.471 µM (active) | 0.368 µM (active) | 0.564 µM (active) | 0.538 µM (active)
10 | CCOC1OC(=O)c2cc3ccc4c(c3c(-c3ccc5c(c3)OCO5)c21)OCO4 (stereo not drawn) | 9.4 µM (inactive) | 1.55 µM (inactive) | 70.5 µM (inactive) | 3.54 µM (inactive) | 4.63 µM (inactive) | 7.6 µM (inactive) | 3.04 µM (inactive) | 1.9 µM (inactive) | 6.05 µM (inactive) | 16.7 µM (inactive) | 10.1 µM (inactive) | 4.12 µM (inactive) | 5.46 µM (inactive) | 2.27 µM (inactive) | 1.42 µM (inactive) | 9.53 µM (inactive) | 12.8 µM (inactive) | 1.08 µM (active) | 9.79 µM (inactive)
11 | N#Cc1c(N2CCOCC2)ncn(-c2ccc(Cl)cc2)c1=O | > 100 µM (inactive) | > 100 µM (inactive) | > 100 µM (inactive) | > 100 µM (inactive) | > 100 µM (inactive) | > 100 µM (inactive) | > 100 µM (inactive) | > 100 µM (inactive) | > 100 µM (inactive) |  | > 100 µM (inactive) | > 100 µM (inactive) |  | > 100 µM (inactive) | > 100 µM (inactive) | > 100 µM (inactive) | > 100 µM (inactive) | > 100 µM (inactive) | > 100 µM (inactive)
